Measurements reported in PubChem BioAssay (NCI).
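Each compound was tested at five concentrations against cells in 96-well plates for 48 hours. GI50: concentration for 50% inhibition of growth. TGI: total growth inhibition.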

System: MDA-MB-468 breast
Assay: growth of human tumour cells (NCI), 48 h

Row | Compound | GI50 [nM] | TGI [µM]
1 | Cn1c(=O)c(-c2ccccc2Cl)cc2cnc(NC3CCOCC3)nc21 | > 19900 | > 25
2 | O=C(Nc1cccc(-n2ccc3c(NC(=O)c4ccccc4)ncnc32)c1)Nc1ccc(Cl)c(C(F)(F)F)c1 | 1480 | 6.06
3 | CC[C@H](C)[C@H](NC(=O)[C@H]1CCCCN1C)C(=O)N(C)[C@H](CCc1nc(C(=O)N[C@@H](Cc2ccccc2)C[C@H](C)C(=O)O)cs1)C(C)C | 85 | > 25
4 | CC[C@]12C=CCN3CC[C@]4(C(=C(C(=O)OC)C1)Nc1cc5c(cc14)[C@@H]1[C@H](O5)[C@@H](O)[C@@]4(CC)CC(C(=O)OC)=C5Nc6cc(O)ccc6[C@@]56CCN1C46)C32 (stereo partly drawn) | 38.4 | 1.51
